Results as given in PubChem BioAssay AID1259411 (Chemical Carcinogenesis Research Information System (CCRIS), 2018).
Active and inactive are the calls of the source. No rule for the calls is given here.

Test system: rodent carcinogenicity bioassays, tumor incidence
Assay: CCRIS carcinogenicity studies
How it was run: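 NCI-built, expert-reviewed records of carcinogenicity and related test outcomes (mutagenicity, tumor promotion/inhibition) compiled from published and report sources, historical span 1985-2011, not updated.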

Measured: carcinogen call

CCN(N=O)C(N)=O
active: Species: HAMSTER, Strain/Sex: SYRIAN/FEMALE, Route: GAVAGE, Dose: 0, 12 MG/ML ((0.2 ML OF A SOLUTION IN ETHYL ACETATE/CORN OIL (1:2)) 1/WK FOR 20 WK (STUDY DURATION: LIFE SPAN), Tumor Site: Type of Lesion: SPLEEN: HEMANGIOSARCOMA, FORESTOMACH: SQUAMOUS CELL CARCINOMA OR PAPILLOMA active; positive | Species: HAMSTER, Strain/Sex: SYRIAN/MALE, Route: GAVAGE, Dose: 0, 12 MG/ML ((0.2 ML OF A SOLUTION IN ETHYL ACETATE/CORN OIL (1:2)) 1/WK FOR 20 WK (STUDY DURATION: 20 WK), Tumor Site: Type of Lesion: SPLEEN: HEMANGIOSARCOMA, FORESTOMACH: SQUAMOUS CELL CARCINOMA OR PAPILLOMA active; positive | Species: HAMSTER, Strain/Sex: SYRIAN/MALE, Route: INTRAPERITONEAL, Dose: 60, 274 MG/KG IN SODIUM CHLORIDE/SODIUM CITRATE ONCE, Tumor Site: Type of Lesion: FORESTOMACH: SQUAMOUS CELL PAPILLOMA active; positive | Species: MOUSE, Route: INTRAPERITONEAL, Tumor Site: Type of Lesion: LIVER, KIDNEY, OVARIES, LUNG, HARDERIAN GLAND, LYMPHATIC SYSTEM, STOMACH, Tumor Site: Type of Lesion: LIVER, KIDNEY, OVARIES, LUNG, HARDERIAN GLAND, LYMPHATIC SYSTEM, STOMACH active; positive | Species: MOUSE, Route: SUBCUTANEOUS, Tumor Site: Type of Lesion: LIVER, LUNG, LYMPHATIC SYSTEM, Tumor Site: Type of Lesion: LIVER, LUNG, LYMPHATIC SYSTEM active; positive | Species: RAT, Route: INTRAPERITONEAL, Tumor Site: Type of Lesion: LYMPHATIC SYSTEM: LYMPHOMA, HEMATOPOIETIC SYSTEM (LEUKEMIA) active; positive | Species: RAT, Route: INTRAVENOUS, Tumor Site: Type of Lesion: BRAIN, NERVOUS SYSTEM (PERIPHERAL), HEMATOPOIETIC SYSTEM (LEUKEMIA), UTERUS, VAGINA, Tumor Site: Type of Lesion: BRAIN, NERVOUS SYSTEM (PERIPHERAL), HEMATOPOIETIC SYSTEM (LEUKEMIA), UTERUS, VAGINA active; positive | Species: RAT, Route: ORAL, Tumor Site: Type of Lesion: BRAIN, NERVOUS SYSTEM (PERIPHERAL), HEMATOPOIETIC SYSTEM (LEUKEMIA), Tumor Site: Type of Lesion: BRAIN, NERVOUS SYSTEM (PERIPHERAL), HEMATOPOIETIC SYSTEM (LEUKEMIA) active; positive | Species: RAT, Route: PRE-NATAL EXPOSURE, Tumor Site: Type of Lesion: NERVOUS SYSTEM active; positive | Species: RAT, Route: SUBCUTANEOUS, Tumor Site: Type of Lesion: BRAIN, NERVOUS SYSTEM (PERIPHERAL) active; positive | Species: RAT, Strain/Sex: F344/FEMALE, Route: GAVAGE, Dose: 0, 6, 12 MG/ML (TOTAL DOSE 0; 0.4; 0.8 MMOL) IN 2 ML ETHYL ACETATE AND CORN OIL (1:2) 2/WK FOR 20 WK (STUDY DURATION: LI, Dose: 0, 6, 12 MG/ML (TOTAL DOSE 0; 0.4; 0.8 MMOL) IN 2 ML ETHYL ACETATE AND CORN OIL (1:2) 2/WK FOR 20 WK (STUDY DURATION: LI, Tumor Site: Type of Lesion: FORESTOMACH: SQUAMOUS CELL CARCINOMA, LUNG: TUMOR, MAMMARY GLAND: TUMOR, Tumor Site: Type of Lesion: FORESTOMACH: SQUAMOUS CELL CARCINOMA, LUNG: TUMOR, MAMMARY GLAND: TUMOR active; positive | Species: RAT, Strain/Sex: F344/FEMALE, Route: GAVAGE, Dose: 0, 6, 12 MG/ML IN 0.2 ML ETHYL ACETATE AND CORN OIL 2/WK FOR 20 WK (STUDY DURATION: LIFESPAN), Dose: 0, 6, 12 MG/ML IN 0.2 ML ETHYL ACETATE AND CORN OIL 2/WK FOR 20 WK (STUDY DURATION: LIFESPAN), Tumor Site: Type of Lesion: FORESTOMACH: TUMOR, LUNG: TUMOR, MAMMARY GLAND: TUMOR, UTERUS: TUMOR, ZYMBAL GLAND: TUMOR, Tumor Site: Type of Lesion: FORESTOMACH: TUMOR, LUNG: TUMOR, MAMMARY GLAND: TUMOR, UTERUS: TUMOR, ZYMBAL GLAND: TUMOR active; positive | Species: RAT, Strain/Sex: F344/FEMALE, Route: INTRAVESICULAR, Dose: 0, 1.2 MG 2/WK FOR 20 WK (STUDY DURATION: LIFETIME), Tumor Site: Type of Lesion: BLADDER: TUMOR active; positive | Species: RAT, Strain/Sex: F344/FEMALE, Route: INTRAVESICULAR, Dose: 0, 2.4 MG 2/WK FOR 14 WK (STUDY DURATION: LIFETIME), Tumor Site: Type of Lesion: BLADDER: TUMOR active; positive | Species: RAT, Strain/Sex: F344/FEMALE, Route: ORAL, Dose: 0, 0.3, 1, 3, 10 PPM IN DRINKING WATER FOR 104 WK (STUDY DURATION: 111 WK), Dose: 0, 0.3, 1, 3, 10 PPM IN DRINKING WATER FOR 104 WK (STUDY DURATION: 111 WK), Tumor Site: Type of Lesion: BRAIN: GLIOMA, UTERUS: ENDOMETRIAL STROMAL POLYP, MAMMARY GLAND: ADENOCARCINOMA, HEMATOPOIETIC SYSTEM: MONONUCLEAR CELL, Tumor Site: Type of Lesion: BRAIN: GLIOMA, UTERUS: ENDOMETRIAL STROMAL POLYP, MAMMARY GLAND: ADENOCARCINOMA, HEMATOPOIETIC SYSTEM: MONONUCLEAR CELL active; positive
